In PubChem BioAssay AID2060910 (Molecular Pharmacology Branch, DTP, NCI, 2025):
pIC50: −log10 of the molar value.

Tested on: 242566-281-R-J2-PDC complex spheroid viability
Assay: Anticancer human tumor 242566-281-R-J2-PDC patient-derived pancreatic carcinoma cell line growth inhibition [RAS]
Details: for pIC50: curve of first compound; for viability, T/C: stronger effect = lower value
Text: RAS pathway inhibitors in Combinations in Complex Spheroids
A high-throughput screen of multi-cell type tumor spheroids was designed to identify active combinations of RAS pathway inhibitors and targeted small molecules. Complex spheroids include a stromal component modeled by human endothelial cells (HUVEC) and fibroblasts modeled by human mesenchymal stem cells (MSCs). The concentration ranges selected for each drug and investigational agent were based upon clinically achievable concentrations if the clinical Cmax of the agent was known.
Compounds. The drugs and investigational agents: abemaciclib (NSC768073), cobimetinib (NSC768068), divarasib (GDC6063, NSC841802), docetaxel (NSC628503), GDC-1971 (RLY-1971, NSC841576), gemcitabine (NSC613327), inavolisib (NSC800729), ipatasertib (NSC767898), KB-0742 (NSC834161), MRTX-1133 (NSC836407), osimertinib (NSC779217), RMC-4630 (NSC839698), RMC-6236 (NSC851965), RMC-6291 (NSC852671), Ro-3306 (NSC812927), sapanisertib (NSC764658), SN-38 (NSC673596), staurosporine (NSC755774), SY5609 (NSC837396), and tovorafenib (DAY101, NSC766906), were obtained from the National Cancer Institute (NCI) Developmental Therapeutics Program Chemical Repository. The FDA-approved anticancer drug set is available from the NCI Developmental Therapeutics Program. […] The stock solutions were prepared in dimethyl sulfoxide (DMSO, Sigma-Aldrich, St. Louis, MO, cat. D2650) at 800-fold the tested concentration and stored at -70 degrees C prior to their use. All drugs and investigational agents were tested over a range starting from a high concentration at or near the clinical Cmax and decreasing in half-log increments. If the clinical Cmax for an agent had not been determined, the highest concentration tested was 10 microM.
Cell Culture. All cells were maintained in an incubator at 37 degrees C and 5% CO2 with 95% humidity. The PDC lines were cultured according to standard operating procedures established by the NCI PDMR. All PDCs were thawed and cultured in Matrigel-coated flasks prepared with a working solution of 1X Ham's F-12 nutrient mix, without supplementation (Invitrogen, Waltham, MA, cat. 11765054), 100 U/mL penicillin-streptomycin (Invitrogen, cat. 15140122), and 2.5% Matrigel (Corning Inc., Corning, NY, cat. 354248) for the first three passages. The 362531-283-R-J2-PDC and 782815-120-R-J1-PDC lines were cultured in 6C/Colon 1B media, which includes advanced DMEM/F-12 (Thermo Fisher Scientific, cat. 12634028), 10 mM HEPES (Thermo Fisher Scientific, cat. 15630080), 1X GlutaMAX supplement (Thermo Fisher Scientific, cat. 35050061), 0.1 mg/mL primocin (InvivoGen, San Diego, CA, cat. ant-pm-2), 10% defined fetal bovine serum, heat inactivated (HyClone Laboratories Inc., Logan, UT, cat. SH30070.03HI), 50% L-WRN conditioned media (ATCC, cat. CRL-3276), 1.25 mM N-Acetyl-L-cysteine (Sigma-Aldrich, cat. A9165), 10 mM nicotinamide (Sigma-Aldrich, cat. N0636), 1X B-27 supplement (Thermo Fisher Scientific, cat. 17504044), 1X N-2 supplement (Thermo Fisher Scientific, cat. 17502048), 50 ng/mL human EGF (Thermo Fisher Scientific, cat. PHG0311), and 10 microM Y-27632 dihydrochloride (Tocris Bioscience, cat. 1254). The K12877-001-R-J1-PDC line was cultured in 6I media, which includes all 6C/Colon 1B media plus 10 ng/mL human FGF-10 (PeproTech, cat. 100-26), 1 ng/mL human FGF-2 (PeproTech, cat. 100-18B), 1 µM prostaglandin E2 (Tocris Bioscience, cat. 2296), […] hydrocortisone (Sigma-Aldrich, cat. H4001), and […] bovine insulin (Sigma-Aldrich, cat. I6634). The K86415-001-R-J1-PDC line was cultured in 6D media, which includes all 6C/Colon 1B media components minus the L-WRN conditioned media. The 485176-168-R4-J1-PDC was cultured in PANC media, which includes all 6C/Colon 1B media plus 100 ng/mL human FGF-10 (PeproTech, cat. 100-26), 500 nM SB-431542 (Selleckchem, cat. S1067), and 10 nM gastrin (Tocris Bioscience, cat. 3006). […]

[1] = second compound 0.0316 µM, first compound 0.0316 µM
[2] = second compound 0.0316 µM, first compound 0.1 µM
[3] = second compound 0.0316 µM, first compound 0.316 µM
[4] = second compound 0.0316 µM, first compound 1 µM
[5] = second compound 0.1 µM, first compound 0.0316 µM
[6] = second compound 0.1 µM, first compound 0.1 µM
[7] = second compound 0.1 µM, first compound 0.316 µM
[8] = second compound 0.1 µM, first compound 1 µM
[9] = second compound 0.316 µM, first compound 0.0316 µM
[10] = second compound 0.316 µM, first compound 0.1 µM
[11] = second compound 0.316 µM, first compound 0.316 µM
[12] = second compound 0.316 µM, first compound 1 µM
[13] = second compound 1 µM, first compound 0.0316 µM
[14] = second compound 1 µM, first compound 0.1 µM
[15] = second compound 1 µM, first compound 0.316 µM
[16] = second compound 1 µM, first compound 1 µM
[17] = second compound 3.16 µM, first compound 0.0316 µM
[18] = second compound 3.16 µM, first compound 0.1 µM
[19] = second compound 3.16 µM, first compound 0.316 µM
[20] = second compound 3.16 µM, first compound 1 µM
[21] = second compound 10 µM, first compound 0.0316 µM
[22] = second compound 10 µM, first compound 0.1 µM
[23] = second compound 10 µM, first compound 0.316 µM
[24] = second compound 10 µM, first compound 1 µM
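Also: spheroids exposed to compound for 7 days before readout.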
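For viability, T/C in this document: 100% = DMSO vehicle control wells.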

SMILES: CC1(O)CCCC1n1c(=O)c(C(F)F)cc2cnc(NC3CCN(S(C)(=O)=O)CC3)nc21 (centres undefined) + C#Cc1c(F)ccc2cc(O)cc(-c3ncc4c(N5CC6CCC(C5)N6)nc(OCC56CCCN5CC(F)C6)nc4c3F)c12
- pIC50 (second compound 0.0316 µM): < 5.00
- pIC50 (second compound 0.1 µM): 5.05
- pIC50 (second compound 0.316 µM): 5.16
- pIC50 (second compound 1 µM): 5.30
- pIC50 (second compound 3.16 µM): 5.41
- pIC50 (second compound 10 µM): 5.39
- viability, T/C [1]: 90.6%
- viability, T/C [2]: 113%
- viability, T/C [3]: 94.6%
- viability, T/C [4]: 81.5%
- viability, T/C (second compound 0.0316 µM, first compound 3.16 µM): 108%
- viability, T/C (second compound 0.0316 µM, first compound 10 µM): 51.5%
- viability, T/C [5]: 80.4%
- viability, T/C [6]: 83.9%
- viability, T/C [7]: 78.7%
- viability, T/C [8]: 88%
- viability, T/C (second compound 0.1 µM, first compound 3.16 µM): 97.6%
- viability, T/C (second compound 0.1 µM, first compound 10 µM): 45.7%
- viability, T/C [9]: 69.3%
- viability, T/C [10]: 75.5%
- viability, T/C [11]: 60.7%
- viability, T/C [12]: 69.8%
- viability, T/C (second compound 0.316 µM, first compound 3.16 µM): 94.6%
- viability, T/C (second compound 0.316 µM, first compound 10 µM): 38.9%
- viability, T/C [13]: 66.3%
- viability, T/C [14]: 63.2%
- viability, T/C [15]: 65.4%
- viability, T/C [16]: 56.6%
- viability, T/C (second compound 1 µM, first compound 3.16 µM): 70.5%
- viability, T/C (second compound 1 µM, first compound 10 µM): 27.5%
- viability, T/C [17]: 51%
- viability, T/C [18]: 54.6%
- viability, T/C [19]: 48%
- viability, T/C [20]: 49.1%
- viability, T/C (second compound 3.16 µM, first compound 3.16 µM): 69%
- viability, T/C (second compound 3.16 µM, first compound 10 µM): 29.7%
- viability, T/C [21]: 52.3%
- viability, T/C [22]: 57.2%
- viability, T/C [23]: 61%
- viability, T/C [24]: 56%
- viability, T/C (second compound 10 µM, first compound 3.16 µM): 66.8%
- viability, T/C (second compound 10 µM, first compound 10 µM): 19.5%

SMILES: CCN1CCN(Cc2ccc(Nc3ncc(F)c(-c4cc(F)c5nc(C)n(C(C)C)c5c4)n3)nc2)CC1 + C#Cc1c(F)ccc2cc(O)cc(-c3ncc4c(N5CC6CCC(C5)N6)nc(OCC56CCCN5CC(F)C6)nc4c3F)c12
- pIC50 (second compound 0.0316 µM): < 6.00
- pIC50 (second compound 0.1 µM): < 6.00
- pIC50 (second compound 0.316 µM): < 6.00
- pIC50 (second compound 1 µM): 8.50
- pIC50 (second compound 3.16 µM): > 8.50
- pIC50 (second compound 10 µM): > 8.50
- viability, T/C (second compound 0.0316 µM, first compound 0.00316 µM): 110%
- viability, T/C (second compound 0.0316 µM, first compound 0.01 µM): 108%
- viability, T/C [1]: 85%
- viability, T/C [2]: 61.7%
- viability, T/C [3]: 84.9%
- viability, T/C [4]: 99%
- viability, T/C (second compound 0.1 µM, first compound 0.00316 µM): 95%
- viability, T/C (second compound 0.1 µM, first compound 0.01 µM): 81.1%
- viability, T/C [5]: 77.5%
- viability, T/C [6]: 56.5%
- viability, T/C [7]: 76%
- viability, T/C [8]: 85.2%
- viability, T/C (second compound 0.316 µM, first compound 0.00316 µM): 79.9%
- viability, T/C (second compound 0.316 µM, first compound 0.01 µM): 72%
- viability, T/C [9]: 46.7%
- viability, T/C [10]: 51.9%
- viability, T/C [11]: 72%
- viability, T/C [12]: 87.3%
- viability, T/C (second compound 1 µM, first compound 0.00316 µM): 64.5%
- viability, T/C (second compound 1 µM, first compound 0.01 µM): 62.1%
- viability, T/C [13]: 50.5%
- viability, T/C [14]: 43.5%
- viability, T/C [15]: 63.3%
- viability, T/C [16]: 77.1%
- viability, T/C (second compound 3.16 µM, first compound 0.00316 µM): 56.6%
- viability, T/C (second compound 3.16 µM, first compound 0.01 µM): 47.2%
- viability, T/C [17]: 31.6%
- viability, T/C [18]: 37.3%
- viability, T/C [19]: 58.5%
- viability, T/C [20]: 72.4%
- viability, T/C (second compound 10 µM, first compound 0.00316 µM): 54.3%
- viability, T/C (second compound 10 µM, first compound 0.01 µM): 48.2%
- viability, T/C [21]: 40.1%
- viability, T/C [22]: 37.6%
- viability, T/C [23]: 51.7%
- viability, T/C [24]: 63.1%
